Measurements: patent US8334236B2, “Ring-fused 2-pyridone derivatives and herbicides” (Kumiai Chemical Industry Co., Ltd., priority 2009, dated 2012)

How the values were obtained:
[1] = tested on: Abutilon theophrasti medicus; assay: Test Example 3: herbicidal effects in farmland foliar treatment; format: in vivo; set-up: scale not given here; settings: 1000 g active ingredient per hectare, 14th day after treatment
Protocol: (§1) 80-cm^2 plastic pots were filled with farmland soil. Seeds of Echinochloa crus-galli (L.) P. Beauv. var. crus-galli, Abutilon theophrasti medicus, and Amaranthus retroflexus were sowed in the pots, and the plants were grown for two weeks in a greenhouse. A wettable powder formulation prepared according to Formulation Example 1 was diluted with water, and the dilution was applied by foliar treatment by spraying with a small sprayer over the whole plant from the upper part, in an amount equivalent to 1000 liters per hectare, such that 1000 g of the active ingredient was applied per hectare. Thereafter, the plants were grown in a greenhouse, and on the 14th day after the treatment, the herbicidal effects were investigated according to the criteria described in Table 71 shown above.

[2] = tested on: Echinochloa crus-galli (L.) P. Beauv. var. crus-galli; assay: as above; format: in vivo; set-up: scale not given here; settings: 1000 g active ingredient per hectare, 14th day after treatment
Protocol: as §1

[3] = tested on: Amaranthus retroflexus; assay: as above; format: in vivo; set-up: scale not given here; settings: 1000 g active ingredient per hectare, 14th day after treatment
Protocol: as §1

[4] = tested on: Setaria viridis; assay: Test Example 3: herbicidal effects in farmland foliar treatment; format: in vivo; set-up: scale not given here; settings: 1000 g active ingredient per hectare, 14th day after treatment
[5] = tested on: Setaria viridis; assay: Test Example 2: herbicidal effects in farmland soil treatment; format: in vivo; set-up: scale not given here; settings: 1000 g active ingredient per hectare, 21st day after treatment
[6] = tested on: Echinochloa oryzicola Vasing; assay: Test Example 1: herbicidal effects in paddy field soil treatment; format: in vivo; set-up: scale not given here; settings: 1000 g active ingredient per hectare, 21st day after treatment
Protocol: (§2) 100-cm^2 plastic pots were filled with paddy field soil. After puddling and leveling, seeds of Echinochloa oryzicola Vasing, Monochoria vaginalis (Burm. f.) Presl var. plantaginea (Roxb.) Solms-Laub., and Scirpus juncoides Roxb. var. ohwianus. T. Koyama were sowed in the pots, and the soil was waterlogged to a water depth of 3 cm. On the next day, a wettable powder formulation prepared according to Formulation Example 1 was diluted with water, and the dilution was added dropwise onto the water surface. The amount of application was an amount equivalent to 1000 g of the active ingredient per hectare. Thereafter, the plants were grown in a greenhouse, and on the 21st day after the treatment, the herbicidal effects were investigated according to the criteria described in Table 71.
(§3) In addition, comparative compound A, comparative compound B, comparative compound C, and comparative compound D in the tables represent Compound Nos. 70, 34, 32, and 31, respectively, as described in EP-283261. The structural formulas of these compounds are presented below.

[7] = tested on: Monochoria vaginalis (Burm. f.) Presl var. plantaginea (Roxb.) Solms-Laub.; assay: as above; format: in vivo; set-up: scale not given here; settings: 1000 g active ingredient per hectare, 21st day after treatment
Protocol: as §2, §3

[8] = tested on: Scirpus juncoides Roxb. var. ohwianus. T. Koyama; assay: as above; format: in vivo; set-up: scale not given here; settings: 1000 g active ingredient per hectare, 21st day after treatment
Protocol: as §2, §3

[9] = tested on: Echinochloa crus-galli; assay: Test Example 2: herbicidal effects in farmland soil treatment; format: in vivo; set-up: scale not given here; settings: 1000 g active ingredient per hectare, 21st day after treatment
[10] = tested on: Abutilon theophrasti medicus; assay: as above; format: in vivo; set-up: scale not given here; settings: 1000 g active ingredient per hectare, 21st day after treatment
Protocol: as §1, with “of” for “of Echinochloa crus-galli (L.) P. Beauv. var. crus-galli,”, “medicus” for “medicus,”, “soil was covered.” for “the plants were grown for two weeks in a greenhouse.”, “uniformly sprayed on the soil surface” for “applied by foliar treatment by spraying”, “sprayer,” for “sprayer over the whole plant from the upper part,”, “21st” for “14th”

[11] = tested on: Amaranthus retroflexus; assay: as above; format: in vivo; set-up: scale not given here; settings: 1000 g active ingredient per hectare, 21st day after treatment
Protocol: as §1, with “of” for “of Echinochloa crus-galli (L.) P. Beauv. var. crus-galli,”, “medicus” for “medicus,”, “soil was covered.” for “the plants were grown for two weeks in a greenhouse.”, “uniformly sprayed on the soil surface” for “applied by foliar treatment by spraying”, “sprayer,” for “sprayer over the whole plant from the upper part,”, “21st” for “14th”

Question: For `COc1ccc(-n2c(=O)c(C(=O)C3=C(O)CCCC3=O)cc3cccnc32)cn1` [II-92, 3-(2-hydroxy-6-oxo-1-cyclohexenecarbonyl)-1-(6-methoxy-3-pyridinyl)-1,8-naphthyridin-2(1H)-one], which “Herbicidal effect index, Abutilon theoprasti” value [1] is on record?
Answer: 5

Question: What about the “Herbicidal effect index, Echinochloa crus-galli” value [2] of the same compound?
Answer: 5

Question: What about the “Herbicidal effect index, Amaranthus retroflexus” value [3] of the same compound?
Answer: 5

Question: What about the melting point of the same compound?
Answer: 220 to 222 °C

Question: And the “Herbicidal effect index, Setaria viridis” value [4]?
Answer: 5

Question: What about the “Herbicidal effect index, Setaria viridis” value [5] of the same compound?
Answer: 4

Question: And the “Herbicidal effect index, Echinochloa oryzicola” value [6]?
Answer: 5

Question: What about the “Herbicidal effect index, Monochoria vaginalis” value [7] of the same compound?
Answer: 5

Question: What about the “Herbicidal effect index, Scirpus juncoides” value [8] of the same compound?
Answer: 5

Question: And the “Herbicidal effect index, Echinochloa crus-galli” value [9]?
Answer: 5

Question: What about the “Herbicidal effect index, Abutilon thophrasti” value [10] of the same compound?
Answer: 5

Question: And the “Herbicidal effect index, Amaranthus retroflexus” value [11]?
Answer: 5

Question: Which melting point does the source give for `O=C1CCCC(O)=C1C(=O)c1cc2cccnc2n(Cc2ccccc2)c1=O` [II-24, 1-benzyl-3-(2-hydroxy-6-oxo-1-cyclohexenecarbonyl)-1,8-naphthyridin-2(1H)-one] here?
Answer: 190 to 192 °C

Question: What about the “Herbicidal effect index, Setaria viridis” value [5] of the same compound?
Answer: 3

Question: And the “Herbicidal effect index, Echinochloa oryzicola” value [6]?
Answer: 5

Question: What about the “Herbicidal effect index, Monochoria vaginalis” value [7] of the same compound?
Answer: 5

Question: What about the “Herbicidal effect index, Scirpus juncoides” value [8] of the same compound?
Answer: 5

Question: What about the “Herbicidal effect index, Echinochloa crus-galli” value [9] of the same compound?
Answer: 5

Question: What about the “Herbicidal effect index, Abutilon thophrasti” value [10] of the same compound?
Answer: 5

Question: And the “Herbicidal effect index, Amaranthus retroflexus” value [11]?
Answer: 5

Question: Which “Herbicidal effect index, Abutilon theoprasti” value [1] does the source give for `O=C1CCCC(O)=C1C(=O)c1cc2cccnc2n(-c2ccc3c(c2)OCCO3)c1=O` [II-118, 1-(2,3-dihydrobenzo[b][1,4]dioxin-6-yl)-3-(2-hydroxy-6-oxo-1-cyclohexenecarbonyl)-1,8-naphthyridin-2(1H)-one] here?
Answer: 5

Question: And the “Herbicidal effect index, Echinochloa crus-galli” value [2]?
Answer: 5

Question: What about the “Herbicidal effect index, Amaranthus retroflexus” value [3] of the same compound?
Answer: 5

Question: What about the melting point of the same compound?
Answer: 226 to 228 °C

Question: What about the “Herbicidal effect index, Setaria viridis” value [4] of the same compound?
Answer: 5

Question: And the “Herbicidal effect index, Setaria viridis” value [5]?
Answer: 5

Question: What about the “Herbicidal effect index, Echinochloa oryzicola” value [6] of the same compound?
Answer: 5

Question: And the “Herbicidal effect index, Monochoria vaginalis” value [7]?
Answer: 5

Question: And the “Herbicidal effect index, Scirpus juncoides” value [8]?
Answer: 5

Question: And the “Herbicidal effect index, Echinochloa crus-galli” value [9]?
Answer: 5

Question: What about the “Herbicidal effect index, Abutilon thophrasti” value [10] of the same compound?
Answer: 5

Question: What about the “Herbicidal effect index, Amaranthus retroflexus” value [11] of the same compound?
Answer: 5

Question: With `O=C1CCCC(O)=C1C(=O)c1cc2cccnc2n(-c2ccccc2)c1=O` [II-41, 3-(2-hydroxy-6-oxo-1-cyclohexenecarbonyl)-1-phenyl-1,8-naphthyridin-2(1H)-one] as the compound, how does the “Herbicidal effect index, Abutilon theoprasti” value [1] read?
Answer: 5

Question: And the “Herbicidal effect index, Echinochloa crus-galli” value [2]?
Answer: 5

Question: And the “Herbicidal effect index, Amaranthus retroflexus” value [3]?
Answer: 5

Question: And the melting point?
Answer: 212 to 214 °C

Question: What about the “Herbicidal effect index, Setaria viridis” value [4] of the same compound?
Answer: 5

Question: What about the “Herbicidal effect index, Setaria viridis” value [5] of the same compound?
Answer: 5

Question: What about the “Herbicidal effect index, Echinochloa oryzicola” value [6] of the same compound?
Answer: 5

Question: And the “Herbicidal effect index, Monochoria vaginalis” value [7]?
Answer: 5

Question: What about the “Herbicidal effect index, Scirpus juncoides” value [8] of the same compound?
Answer: 5

Question: What about the “Herbicidal effect index, Echinochloa crus-galli” value [9] of the same compound?
Answer: 5

Question: What about the “Herbicidal effect index, Abutilon thophrasti” value [10] of the same compound?
Answer: 5

Question: What about the “Herbicidal effect index, Amaranthus retroflexus” value [11] of the same compound?
Answer: 5

Question: Which “Herbicidal effect index, Abutilon theoprasti” value [1] does the source give for `CCSCn1c(=O)c(C(=O)C2=C(O)CCCC2=O)cc2cccnc21` [II-19, 1-(ethylthiomethyl)-3-(2-hydroxy-6-oxo-1-cyclohexenecarbonyl)-1,8-naphthyridin-2(1H)-one] here?
Answer: 5

Question: And the “Herbicidal effect index, Echinochloa crus-galli” value [2]?
Answer: 5

Question: And the “Herbicidal effect index, Amaranthus retroflexus” value [3]?
Answer: 5

Question: What about the melting point of the same compound?
Answer: 108 to 110 °C

Question: What about the “Herbicidal effect index, Setaria viridis” value [4] of the same compound?
Answer: 5

Question: What about the “Herbicidal effect index, Setaria viridis” value [5] of the same compound?
Answer: 4

Question: And the “Herbicidal effect index, Echinochloa oryzicola” value [6]?
Answer: 5

Question: And the “Herbicidal effect index, Monochoria vaginalis” value [7]?
Answer: 5

Question: And the “Herbicidal effect index, Scirpus juncoides” value [8]?
Answer: 5

Question: What about the “Herbicidal effect index, Echinochloa crus-galli” value [9] of the same compound?
Answer: 4

Question: What about the “Herbicidal effect index, Abutilon thophrasti” value [10] of the same compound?
Answer: 5

Question: What about the “Herbicidal effect index, Amaranthus retroflexus” value [11] of the same compound?
Answer: 5

Question: What does the source list for `Cc1cc(-n2c(=O)c(C(=O)C3=C(O)CCCC3=O)cc3cccnc32)no1` [II-63, 3-(2-hydroxy-6-oxo-1-cyclohexenecarbonyl)-1-(5-methyl-3-isoxazolyl)-1,8-naphthyridin-2(1H)-one]?
Answer: Herbicidal effect index, Abutilon theoprasti [1]: 5; Herbicidal effect index, Echinochloa crus-galli [2]: 5; Herbicidal effect index, Amaranthus retroflexus [3]: 5; melting point: 113 to 116 °C; Herbicidal effect index, Setaria viridis [4]: 5; Herbicidal effect index, Setaria viridis [5]: 3; Herbicidal effect index, Echinochloa oryzicola [6]: 5; Herbicidal effect index, Monochoria vaginalis [7]: 5; Herbicidal effect index, Scirpus juncoides [8]: 5; Herbicidal effect index, Echinochloa crus-galli [9]: 4; Herbicidal effect index, Abutilon thophrasti [10]: 5; Herbicidal effect index, Amaranthus retroflexus [11]: 5

Question: For `Cn1c(=O)c(C(=O)C2=C(O)CCCC2=O)cc2cccnc21` [II-2, 3-(2-hydroxy-6-oxo-1-cyclohexenecarbonyl)-1-methyl-1,8-naphthyridin-2(1H)-one], which “Herbicidal effect index, Abutilon theoprasti” value [1] is on record?
Answer: 5

Question: What about the “Herbicidal effect index, Echinochloa crus-galli” value [2] of the same compound?
Answer: 5

Question: What about the “Herbicidal effect index, Amaranthus retroflexus” value [3] of the same compound?
Answer: 5

Question: And the melting point?
Answer: 151 to 153 °C

Question: And the “Herbicidal effect index, Setaria viridis” value [4]?
Answer: 4

Question: What about the “Herbicidal effect index, Setaria viridis” value [5] of the same compound?
Answer: 5

Question: What about the “Herbicidal effect index, Echinochloa oryzicola” value [6] of the same compound?
Answer: 5

Question: What about the “Herbicidal effect index, Monochoria vaginalis” value [7] of the same compound?
Answer: 5

Question: What about the “Herbicidal effect index, Scirpus juncoides” value [8] of the same compound?
Answer: 5

Question: And the “Herbicidal effect index, Echinochloa crus-galli” value [9]?
Answer: 5

Question: And the “Herbicidal effect index, Abutilon thophrasti” value [10]?
Answer: 5

Question: What about the “Herbicidal effect index, Amaranthus retroflexus” value [11] of the same compound?
Answer: 5

Question: Which “Herbicidal effect index, Abutilon theoprasti” value [1] does the source give for `Cn1c(=O)c(C(=O)C2=C(O)CCCC2=O)cc2ccc(C(F)(F)F)nc21` [II-136, 3-(2-hydroxy-6-oxo-1-cyclohexenecarbonyl)-1-methyl-7-(trifluoromethyl)-1,8-naphthyridin-2(1H)-one] here?
Answer: 5

Question: What about the “Herbicidal effect index, Echinochloa crus-galli” value [2] of the same compound?
Answer: 5

Question: What about the “Herbicidal effect index, Amaranthus retroflexus” value [3] of the same compound?
Answer: 5

Question: And the melting point?
Answer: 194 to 196 °C

Question: And the “Herbicidal effect index, Setaria viridis” value [4]?
Answer: 4

Question: And the “Herbicidal effect index, Setaria viridis” value [5]?
Answer: 4

Question: And the “Herbicidal effect index, Echinochloa oryzicola” value [6]?
Answer: 5

Question: And the “Herbicidal effect index, Monochoria vaginalis” value [7]?
Answer: 5

Question: And the “Herbicidal effect index, Scirpus juncoides” value [8]?
Answer: 5

Question: What about the “Herbicidal effect index, Echinochloa crus-galli” value [9] of the same compound?
Answer: 5

Question: What about the “Herbicidal effect index, Abutilon thophrasti” value [10] of the same compound?
Answer: 4

Question: And the “Herbicidal effect index, Amaranthus retroflexus” value [11]?
Answer: 5
